# Entries after “also recorded” stand apart in the source; their conditions may differ. Read-outs that look alike come from different tables or passages of the source.
# Assays:
# plasma tyrosine = assay: Plasma tyrosine concentration kinetic profile in the rat following a single oral dose; assay type: in vivo; conditions: single oral dose 10 mg/kg
# Procedure: The plasma tyrosine concentration kinetic profile in the rat was determined for each of the HPPD inhibitor test compounds by administering a single oral dose to 10-12 week old male Sprague Dawley rats. Compounds 3.20, 3.13 and 3.26 were dosed at 2 mg/kg in 1% carboxymethylcellulose (1% CMC) vehicle, whilst compounds 3.22, 3.12, 3.15, 3.18, 3.23, 3.21, 3.11, 3.01, 3.24 and 3.25 were administered at 10 mg/kg in 1% CMC.
# Blood samples to determine plasma tyrosine concentration were obtained at frequent intervals during the first 24 hours post-dose, and at 48 hours post-dose. These samples were either compared with blood samples obtained from control rats which only received an equivalent volume of the vehicle, 1% CMC, or by comparison with control samples obtained from the rats 1 hour prior to dosing with test the compound. Prior to the analysis of the samples for plasma tyrosine concentration, the blood samples were centrifuged at 1800 g for 10 minutes at 4° C. The plasma was collected and then filtered through a centrifugal micro partition device at 1500 g for 30 minutes at 4° C. The filtered plasma was then divided into two aliquots and stored frozen at −70° C. for subsequent gradient reverse phase high performance liquid chromatographic (HPLC) analysis of plasma tyrosine. Aliquots of plasma were analysed by HPLC using a 250×4.6 mm Hichrom S5ODS2 column at 30° C., eluted with a mobile phase of water/acetonitrile/trifluoroacetic acid (950:50:2 v/v/v) at a flow rate of 1 ml/min. Detection was by a diode array detector at 274 nm. Appropriate tyrosine standards were run alongside the samples for calibration purposes.
# The plasma tyrosine concentration kinetic profile for the test compounds 3.20, 3.13 and 3.26 are shown at the time points 1, 2, 4, 6, 12, 24 and 48 hours post-dose in Table 1.1. The data shown are the mean±standard deviation (n=4), except for the 6 hour time point where the data were obtained from n=3 rats for the control and 3.26 groups.
# The plasma tyrosine concentration kinetic profile for the test compounds 3.22, 3.12, 3.15, 3.18, 3.23, 3.21, 3.11, 3.01, 3.24 and 3.25 are shown at the time points −1 hour (pre-dose control), 1, 3, 6, 12, 24 and 48 hours post-dose, in Tables 1.2 and 1.3. The data shown are the mean±standard deviation (n=3), except for the −1 hour time point with compound 3.23, where n=2 (Table 1.2), and for the 3 and 6 hour time points with compound 3.21, where n=2 (Table 1.3).
# [1] = system: AMPT rat model of Parkinson's disease; assay: AMPT rat model of Parkinson's disease (catalepsy descent latency and centre rearing counts); assay type: in vivo; conditions: for Mean Catalepsy Descent Latency (s) / Mean Centre Rearing Counts: Table 1.5: 225 mg/kg AMPT i.p. + 10 mg/kg oral at -16 hours, 8 h post AMPT; for reversal of AMPT induced deficits in mean centre rearing counts (in words) / reversal of AMPT induced catalepsy (in words): single oral dose 10 mg/kg, -16 or -1 hours; for reversal of AMPT induced catalepsy (in words): 10 mg/kg
# Procedure: AMPT is a competitive inhibitor of tyrosine hydroxylase. Rats dosed with >150 mg/kg AMPT develop parkinsonian-like behavior and locomotor deficits (e.g. catalepsy and reduced rearing activity) within hours owing to the depletion of striatal dopamine concentration as a consequence of the reduced flux through the dopamine synthetic pathway. […] Indian J. Exp. Biol. 41, 1264-1268).
# The effect was compared with appropriate vehicle control groups (oral vehicle was 1% carboxymethylcellulose; CMC) and a group that received a 150 mg/kg i.p. dose of L-dopa.
# Eight hours after AMPT (or vehicle) administration rats were assessed for catalepsy and centre rearing activity. During the catalepsy test, the front paws of the rat were placed over a horizontal bar suspended 9 cm off the floor. The time taken for the rat to get off the bar (descent latency) was measured with a maximum time of 3 minutes being allowed. Centre rearing counts were determined over a 1 hour monitoring period using an automated activity monitoring system (AM1053). This system used an array of infrared beams to determine the activity and mobility of each animal. Each cage had 48 infrared beams, 24 on each of two levels arranged in an 8×16, 1″ (25.4 mm) pitch grid. The lower grid measured horizontal x, y movement, whilst the upper grid measured rearing movement. The activity detector operated by counting the number of times the beams changed from unbroken to broken and then incrementing the relevant counters.
# These groups were compared to a positive control group (6) dosed with 225 mg/kg AMPT i.p.+150 mg/kg L-dopa i.p. 6.5 hour post AMPT dose. L-dopa was administered with a peripheral dopa decarboxylase inhibitor (benserazide), at 100 mg/kg i.p.
# In a second and third series of experiments, the efficacy of eight other HPPD inhibitor test compounds were assessed in the AMPT rat model of Parkinson's disease (Tables 1.5 & 1.6). Male Sprague-Dawley rats (300-350 g) were administered a single i.p. dose of 225 mg/kg AMPT and a single oral dose of 10 mg/kg of the HPPD inhibitor test compound was administered either 1 or 16 hours prior to (−16 or −1 hours) AMPT administration. Behavioral assessment (catalepsy and centre rearing counts) was conducted 8 hours post AMPT administration. The effect was compared with a vehicle control group and a group receiving AMPT alone.
# [2] = target: T1, 4-hydroxyphenyl pyruvate dioxygenase (HPPD) (Rattus norvegicus, UniProt P32755); assay: Determination of 4-hydroxyphenyl pyruvate dioxygenase (HPPD) enzyme activity in vitro (rate of oxygen consumption, rat liver cytosol); assay type: biochemical; conditions: for inhibition at 0.1 µM: read-out: % Inhibition at 100 nM
# T1 construct: rat liver cytosol (2.7 mg of protein/ml incubate); from tissue; host or cells: rat liver (cytosol, 110,000 g supernatant)
# Procedure: The principle of the assay is that 4-hydroxyphenyl pyruvate dioxygenase (HPPD), an enzyme that participates in the catabolism of tyrosine, catalyses the oxidative decarboxylation and rearrangement of 4-hydroxyphenylpyruvate (HPPA) to homogentisate, with the incorporation of both atoms of molecular oxygen into the product.
# Rat liver was homogenised in buffer of the following composition; 0.25 M Sucrose, 5.4 mM EDTA, 20 mM Tris base, pH 7.4, (25% homogenate) using 6 passes of a Potter type homogeniser. The homogenate was then centrifuged at 1,800 g for 10 minutes at 4° C., the pellet was discarded and the supernatant centrifuged at 17,000 g for a further 15 minutes at 4° C. The pellet was then discarded and the supernatant centrifuged at 110,000 g for 80 minutes at 4° C. The supernatant containing the HPPD enzyme from this 110,000 g spin was collected and stored frozen at −70° C. and used in the assays of the test compounds (see below).
# Prior to the start of the enzymatic reaction by the addition of HPPA substrate, the enzyme and test compound (inhibitor) were incubated together for 3 minutes.
# In cases where the effects of several concentrations of an inhibitor were investigated, an IC50 value (the half-maximal inhibitory concentration of test compound) was determined by plotting the data using a non-linear regression curve-fitting program using a GraphPad Prism™ software package.
# Data are expressed as mean values from two experiments except where indicated. Where appropriate the values are expressed as the mean±standard deviation.
# T1 sequence (P32755 whole entry): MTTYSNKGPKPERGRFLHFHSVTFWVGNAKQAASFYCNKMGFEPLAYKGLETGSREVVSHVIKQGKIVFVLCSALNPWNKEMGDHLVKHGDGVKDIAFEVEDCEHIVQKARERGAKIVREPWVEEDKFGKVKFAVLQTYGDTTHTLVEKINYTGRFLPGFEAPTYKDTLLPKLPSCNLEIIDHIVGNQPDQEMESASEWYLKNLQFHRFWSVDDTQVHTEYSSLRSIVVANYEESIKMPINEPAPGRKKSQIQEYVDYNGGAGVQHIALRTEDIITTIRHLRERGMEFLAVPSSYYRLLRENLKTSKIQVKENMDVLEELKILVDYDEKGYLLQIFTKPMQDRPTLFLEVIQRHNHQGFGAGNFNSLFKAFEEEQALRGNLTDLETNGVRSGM
SMILES,Plasma Tyrosine Concentration (plasma tyrosine; 1 hour post-dose) [nmol/mL],Plasma Tyrosine Concentration (plasma tyrosine; 3 hours post-dose) [nmol/mL],Plasma Tyrosine Concentration (plasma tyrosine; 6 hours post-dose) [nmol/mL],Plasma Tyrosine Concentration (plasma tyrosine; 12 hours post-dose) [nmol/mL],Plasma Tyrosine Concentration (plasma tyrosine; 24 hours post-dose) [nmol/mL],Plasma Tyrosine Concentration (plasma tyrosine; 48 hours post-dose) [nmol/mL],Mean Catalepsy Descent Latency (s) [1],Mean Centre Rearing Counts [1] [counts],reversal of AMPT induced deficits in mean centre rearing counts (in words) [1],reversal of AMPT induced catalepsy (in words) [1],"inhibition at 0.1 µM ([2]; 100 nM test compound, rat liver cytosol, 3 min pre-incubation) [%]",inhibition at 0.1 µM [2] [%],inhibition at 0.3 µM ([2]; read-out: % inhibition at 300 nM) [%]
CC1(C)C(=O)C(C(=O)c2ccc(C(F)(F)F)cc2[N+](=O)[O-])C(=O)C(C)(C)C1=O [Compound 3.23],173 ± 22.0,307 ± 28.0,502 ± 37.5,1041 ± 88.5,1835 ± 444.1,299 ± 202.8,10 ± 3.0^+++ s,273 ± 63,either partially or completely reversing,substantially reversed; also recorded: effective in reversing,24,,
Cc1nc(C(F)(F)F)ccc1C(=O)C1C(=O)C2CCC(C2)C1=O.[K+] (centres unmarked) [Compound 3.24],184 ± 27.8,313 ± 49.9,548 ± 83.9,1008 ± 85.2,2110 ± 111.1,2571 ± 167.7,15 ± 8.9^+++ s,189 ± 36,either partially or completely reversing,substantially reversed; also recorded: effective in reversing,,5,34
